According to PubChem BioAssay AID1259407 (Chemical Carcinogenesis Research Information System (CCRIS), 2018):
The source made the active and inactive calls. The rule behind the calls is not given here.

Tested on: CCRIS mutagenicity, Ames/micronucleus/aberration tests
Experiment: CCRIS mutagenicity studies
[1] = Test System: AMES SALMONELLA TYPHIMURIUM, Strain/Indicator: TA98, Metabolic Activation: NONE, Method: STANDARD PLATE
[2] = Test System: AMES SALMONELLA TYPHIMURIUM, Strain/Indicator: TA98, Metabolic Activation: RAT, LIVER, S-9, AROCLOR 1254, Method: STANDARD PLATE
[3] = Test System: AMES SALMONELLA TYPHIMURIUM, Strain/Indicator: TA100, Metabolic Activation: NONE, Method: STANDARD PLATE
[4] = Test System: AMES SALMONELLA TYPHIMURIUM, Strain/Indicator: TA100, Metabolic Activation: RAT, LIVER, S-9, AROCLOR 1254, Method: STANDARD PLATE
[5] = Test System: AMES SALMONELLA TYPHIMURIUM, Strain/Indicator: TA1537, Metabolic Activation: NONE, Method: STANDARD PLATE
[6] = Test System: AMES SALMONELLA TYPHIMURIUM, Strain/Indicator: TA1537, Metabolic Activation: RAT, LIVER, S-9, AROCLOR 1254, Method: STANDARD PLATE
[7] = Test System: AMES SALMONELLA TYPHIMURIUM, Strain/Indicator: TA98, Metabolic Activation: NONE, Method: PREINCUBATION
[8] = Test System: AMES SALMONELLA TYPHIMURIUM, Strain/Indicator: TA100, Metabolic Activation: NONE, Method: PREINCUBATION
[9] = Test System: AMES SALMONELLA TYPHIMURIUM, Strain/Indicator: TA1535, Metabolic Activation: NONE, Method: PREINCUBATION
[10] = Test System: AMES SALMONELLA TYPHIMURIUM, Strain/Indicator: TA1537, Metabolic Activation: NONE, Method: PREINCUBATION
[11] = Test System: AMES SALMONELLA TYPHIMURIUM, Strain/Indicator: TA1535, Metabolic Activation: NONE, Method: STANDARD PLATE
[12] = Test System: AMES SALMONELLA TYPHIMURIUM, Strain/Indicator: TA1535, Metabolic Activation: RAT, LIVER, S-9, AROCLOR 1254, Method: STANDARD PLATE
[13] = Test System: AMES SALMONELLA TYPHIMURIUM, Strain/Indicator: TA1538, Metabolic Activation: NONE, Method: STANDARD PLATE
[14] = Test System: AMES SALMONELLA TYPHIMURIUM, Strain/Indicator: TA1538, Metabolic Activation: RAT, LIVER, S-9, AROCLOR 1254, Method: STANDARD PLATE

C1COCCOCCOCCOCCOCCOCCO1
mutagenic call [1]: inactive; negative
mutagenic call [2]: inactive; negative
mutagenic call [3]: inactive; negative
mutagenic call [4]: inactive; negative
mutagenic call (Test System: AMES SALMONELLA TYPHIMURIUM, Strain/Indicator: TA1530, Metabolic Activation: NONE, Method: STANDARD PLATE): inactive; negative
mutagenic call (Test System: AMES SALMONELLA TYPHIMURIUM, Strain/Indicator: TA1530, Metabolic Activation: RAT, LIVER, S-9, AROCLOR 1254, Method: STANDARD PLATE): inactive; negative
mutagenic call [5]: inactive; negative
mutagenic call [6]: inactive; negative

CCSC(=O)N(CC)C1CCCCC1
mutagenic call (End Point: In vitro chromosomal aberrations, Test System: Human lymphocytes, Metabolic Activation: None): inactive; negative
mutagenic call (End Point: In vitro chromosomal aberrations, Test System: Human lymphocytes, Metabolic Activation: S-9 (No additional details provided in source)): inactive; negative
mutagenic call (End Point: In vivo micronucleus, Test System: Bone marrow, Species: Mouse, Strain/Sex: CD/Female, Route: Oral): inactive; negative
mutagenic call (End Point: In vivo micronucleus, Test System: Bone marrow, Species: Mouse, Strain/Sex: CD/Male, Route: Oral): inactive; negative

Cn1c(NO)nc2ncc(-c3ccccc3)cc21
mutagenic call (Test System: AMES SALMONELLA TYPHIMURIUM, Strain/Indicator: TA98(1,8-DNP6), Metabolic Activation: NONE, Method: STANDARD PLATE): active; positive
mutagenic call [1]: active; positive
mutagenic call [2]: active; positive

CCNC(=O)Nc1ccc(OCC(O)CNC(C)(C)C)c(C(C)=O)c1 (centres undefined)
mutagenic call [7]: inactive; negative
mutagenic call (Test System: AMES SALMONELLA TYPHIMURIUM, Strain/Indicator: TA98, Metabolic Activation: RAT, LIVER, S-9, AROCLOR 1254 (10 OR 50 µL/PLATE), Method: PREINCUBATION): inactive; negative
mutagenic call [8]: inactive; negative
mutagenic call (Test System: AMES SALMONELLA TYPHIMURIUM, Strain/Indicator: TA100, Metabolic Activation: RAT, LIVER, S-9, AROCLOR 1254 (10 OR 50 µL/PLATE), Method: PREINCUBATION): inactive; negative
mutagenic call [9]: inactive; negative
mutagenic call (Test System: AMES SALMONELLA TYPHIMURIUM, Strain/Indicator: TA1535, Metabolic Activation: RAT, LIVER, S-9, AROCLOR 1254 (10 OR 50 µL/PLATE), Method: PREINCUBATION): inactive; negative
mutagenic call [10]: inactive; negative
mutagenic call (Test System: AMES SALMONELLA TYPHIMURIUM, Strain/Indicator: TA1537, Metabolic Activation: RAT, LIVER, S-9, AROCLOR 1254 (10 OR 50 µL/PLATE), Method: PREINCUBATION): inactive; negative
mutagenic call (Test System: E. COLI, Strain/Indicator: WP2 UVRA, Metabolic Activation: NONE, Method: PREINCUBATION): inactive; negative
mutagenic call (Test System: E. COLI, Strain/Indicator: WP2 UVRA, Metabolic Activation: RAT, LIVER, S-9, AROCLOR 1254 (10 OR 50 µL/PLATE), Method: PREINCUBATION): inactive; negative

Nc1ccc(-c2ccc(Cl)cc2)cc1
mutagenic call [1]: inactive; negative
mutagenic call [2]: active; positive
mutagenic call [3]: inactive; negative
mutagenic call [4]: active; positive

CC1CC(C)C(=O)C1=O (centres undefined)
mutagenic call [7]: inactive; negative
mutagenic call (Test System: AMES SALMONELLA TYPHIMURIUM, Strain/Indicator: TA98, Metabolic Activation: S-9, Method: PREINCUBATION): inactive; negative
mutagenic call [8]: inactive; negative
mutagenic call (Test System: AMES SALMONELLA TYPHIMURIUM, Strain/Indicator: TA100, Metabolic Activation: S-9, Method: PREINCUBATION): inactive; negative
mutagenic call [9]: inactive; negative
mutagenic call (Test System: AMES SALMONELLA TYPHIMURIUM, Strain/Indicator: TA1535, Metabolic Activation: S-9, Method: PREINCUBATION): inactive; negative
mutagenic call [10]: inactive; negative
mutagenic call (Test System: AMES SALMONELLA TYPHIMURIUM, Strain/Indicator: TA1537, Metabolic Activation: S-9, Method: PREINCUBATION): inactive; negative
mutagenic call (Test System: E.COLI, Strain/Indicator: WP2 UVRA, Metabolic Activation: NONE, Method: PREINCUBATION): inactive; negative
mutagenic call (Test System: E.COLI, Strain/Indicator: WP2 UVRA, Metabolic Activation: S-9, Method: PREINCUBATION): inactive; negative

ClCc1ccc2ccc3cccc4ccc1c2c34
mutagenic call (Test System: AMES SALMONELLA TYPHIMURIUM, Strain/Indicator: TA98, Metabolic Activation: NONE): active; positive
mutagenic call [7]: active; positive
mutagenic call [1]: active; positive
mutagenic call [3]: active; positive

COc1cccc2c1C(=N)c1c(O)c3c(c(O)c1C2=O)C[C@@](O)(C(C)=O)C[C@@H]3O[C@H]1C[C@H](N)[C@H](O)[C@H](C)O1
mutagenic call (Test System: CHINESE HAMSTER V-79, Strain/Indicator: V-79 (HGPRT)/6-THIOGUANINE, Metabolic Activation: NONE): active; positive

O=C(CCl)NCO
mutagenic call (Test System: AMES SALMONELLA TYPHIMURIUM, Strain/Indicator: TA97, Metabolic Activation: NONE, Method: STANDARD PLATE): inactive; negative
mutagenic call (Test System: AMES SALMONELLA TYPHIMURIUM, Strain/Indicator: TA97, Metabolic Activation: RAT, LIVER, S-9, AROCLOR 1254, Method: STANDARD PLATE): inactive; negative
mutagenic call [7]: inactive; negative
mutagenic call [1]: inactive; negative
mutagenic call (Test System: AMES SALMONELLA TYPHIMURIUM, Strain/Indicator: TA98, Metabolic Activation: RAT, LIVER, S-9, AROCLOR 1254, Method: PREINCUBATION): inactive; negative
mutagenic call [2]: inactive; negative
mutagenic call [8]: inactive; negative
mutagenic call [3]: inactive; negative
mutagenic call (Test System: AMES SALMONELLA TYPHIMURIUM, Strain/Indicator: TA100, Metabolic Activation: RAT, LIVER, S-9, AROCLOR 1254, Method: PREINCUBATION): inactive; negative
mutagenic call [4]: inactive; negative
mutagenic call [11]: inactive; negative
mutagenic call [12]: inactive; negative
mutagenic call [5]: inactive; negative
mutagenic call [6]: inactive; negative
mutagenic call [13]: inactive; negative
mutagenic call [14]: inactive; negative

NCCCC[C@H](N[C@@H](CCc1ccccc1)C(=O)O)C(=O)N1CCC[C@H]1C(=O)O
mutagenic call [1]: inactive; negative
mutagenic call [2]: inactive; negative
mutagenic call [3]: inactive; negative
mutagenic call [4]: inactive; negative
mutagenic call [11]: inactive; negative
mutagenic call [12]: inactive; negative
mutagenic call [5]: inactive; negative
mutagenic call [6]: inactive; negative
mutagenic call [13]: inactive; negative
mutagenic call [14]: inactive; negative
mutagenic call (Test System: E. COLI, Strain/Indicator: WP2, Metabolic Activation: NONE, Method: STANDARD PLATE): inactive; negative
mutagenic call (Test System: E. COLI, Strain/Indicator: WP2, Metabolic Activation: RAT, LIVER, S-9, AROCLOR 1254, Method: STANDARD PLATE): inactive; negative
mutagenic call (Test System: E. COLI, Strain/Indicator: WP2 UVRA, Metabolic Activation: NONE, Method: STANDARD PLATE): inactive; negative
mutagenic call (Test System: E. COLI, Strain/Indicator: WP2 UVRA, Metabolic Activation: RAT, LIVER, S-9, AROCLOR 1254, Method: STANDARD PLATE): inactive; negative
